Patent US8637499B2, “Benzoxazepines as inhibitors of PI3K/mTOR and methods of their use and manufacture” (Exelixis, Inc., priority 2009, dated 2014)
Read-outs that look alike come from different tables or passages of the source.

Tests used:
PI3Kα = PI3Kα (Homo sapiens, UniProt P42336); experiment: PI3K Biochemical Assays (ATP consumption, luciferase-luciferin chemiluminescence); details: PI3Kα 1.5 nM, ATP 1 μM, PIP2 10 μM; percent of ATP consumed
How it was run: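 Enzyme (1.5 nM), PIP2 substrate (10 μM) and ATP (1 μM) react about 2 h at room temperature in Tris buffer pH 7.5 with MgCl2, EGTA, DTT and CHAPS. Remaining ATP detected by Kinase-Glo luminescence; total consumption limited to 40-60%.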

mTORC1 (mTOR/GbL/Raptor) = mTORC1 (mTOR/GbL/Raptor) (Homo sapiens, UniProt P42345); experiment: mTOR/GbL/Raptor (mTORC1) ELISA Assay; type: biochemical; details: 0.2 nM mTORC1, 10 μM ATP, 50 nM NHis-tagged 4E-BP1, phosphorylation of 4E-BP1
How it was run: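 Detection used Ni-chelate capture of His-tagged 4E-BP1, then anti-phospho-4E-BP1 and HRP anti-IgG with luminescent ELISA substrate. Reactions ran 120 min at ambient temperature with 0.2 nM mTORC1, 10 μM ATP, 50 nM 4E-BP1, 10 mM MnCl2, pH 7.2 Hepes.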

PI3Kα, sequence (P42336 whole entry): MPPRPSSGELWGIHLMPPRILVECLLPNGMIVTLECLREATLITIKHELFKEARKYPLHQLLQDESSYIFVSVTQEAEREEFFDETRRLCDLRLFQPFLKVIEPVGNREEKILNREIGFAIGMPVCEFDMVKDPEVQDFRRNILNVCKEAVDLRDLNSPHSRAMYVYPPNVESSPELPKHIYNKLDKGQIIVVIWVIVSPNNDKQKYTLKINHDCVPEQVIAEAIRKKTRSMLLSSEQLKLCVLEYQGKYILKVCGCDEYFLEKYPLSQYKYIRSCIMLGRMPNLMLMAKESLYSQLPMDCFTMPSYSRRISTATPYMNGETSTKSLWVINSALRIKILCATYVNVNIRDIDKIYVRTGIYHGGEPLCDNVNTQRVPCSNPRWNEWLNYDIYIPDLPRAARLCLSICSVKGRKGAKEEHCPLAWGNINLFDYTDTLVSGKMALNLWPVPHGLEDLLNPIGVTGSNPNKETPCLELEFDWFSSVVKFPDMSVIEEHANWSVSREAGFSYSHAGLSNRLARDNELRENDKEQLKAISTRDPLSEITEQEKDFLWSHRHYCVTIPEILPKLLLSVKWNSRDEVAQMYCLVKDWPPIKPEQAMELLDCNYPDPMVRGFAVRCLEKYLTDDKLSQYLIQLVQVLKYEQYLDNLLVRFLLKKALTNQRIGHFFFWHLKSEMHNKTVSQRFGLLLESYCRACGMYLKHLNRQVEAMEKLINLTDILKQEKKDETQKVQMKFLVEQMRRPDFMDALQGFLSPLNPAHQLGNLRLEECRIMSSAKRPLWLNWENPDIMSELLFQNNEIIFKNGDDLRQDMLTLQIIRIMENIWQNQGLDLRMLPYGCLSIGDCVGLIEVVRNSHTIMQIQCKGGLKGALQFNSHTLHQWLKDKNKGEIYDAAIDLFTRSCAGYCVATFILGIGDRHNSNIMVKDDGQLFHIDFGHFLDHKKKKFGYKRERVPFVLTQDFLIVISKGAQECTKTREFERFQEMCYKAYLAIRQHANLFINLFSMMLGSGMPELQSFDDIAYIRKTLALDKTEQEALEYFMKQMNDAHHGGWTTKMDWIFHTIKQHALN
PI3Kα, sequence (P27986 whole entry partner): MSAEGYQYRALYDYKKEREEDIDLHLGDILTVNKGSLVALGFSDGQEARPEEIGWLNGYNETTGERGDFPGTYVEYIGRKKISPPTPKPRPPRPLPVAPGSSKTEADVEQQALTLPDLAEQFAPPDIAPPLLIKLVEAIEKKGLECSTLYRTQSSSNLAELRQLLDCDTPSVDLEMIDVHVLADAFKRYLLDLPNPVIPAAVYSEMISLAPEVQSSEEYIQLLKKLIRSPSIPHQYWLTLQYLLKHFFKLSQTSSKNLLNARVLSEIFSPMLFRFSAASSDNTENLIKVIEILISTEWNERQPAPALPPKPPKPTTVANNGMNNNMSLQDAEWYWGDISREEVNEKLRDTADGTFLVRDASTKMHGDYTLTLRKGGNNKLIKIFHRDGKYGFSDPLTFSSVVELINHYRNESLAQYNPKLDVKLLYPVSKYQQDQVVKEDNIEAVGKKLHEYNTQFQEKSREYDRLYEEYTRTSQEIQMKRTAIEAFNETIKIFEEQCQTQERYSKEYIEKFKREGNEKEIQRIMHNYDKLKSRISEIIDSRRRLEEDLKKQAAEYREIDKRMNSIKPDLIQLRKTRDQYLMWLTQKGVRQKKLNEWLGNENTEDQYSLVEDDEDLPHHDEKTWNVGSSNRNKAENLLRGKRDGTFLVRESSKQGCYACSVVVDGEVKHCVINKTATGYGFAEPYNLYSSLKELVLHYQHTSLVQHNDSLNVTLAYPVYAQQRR

| SMILES | IC50 (PI3Kα) [µM] | IC50 (mTORC1 (mTOR/GbL/Raptor); read-out: IC50) [µM] | IC50 (mTORC1 (mTOR/GbL/Raptor)) |
| --- | --- | --- | --- |
| Cc1nc2ccc(-c3ccc4c(c3)CN(C(=O)N3CCCC(O)C3)CCO4)cc2[nH]1 (stereo not shown) [Compound 108, 1-{[7-(2-methyl-1H-benzimidazol-6-yl)-2,3-dihydro-1,4-benzoxazepin-4(5H)-yl]carbonyl}piperidin-3-ol] | 0.5 to 1 | 0.25 to 0.7 | – |
| Cc1nc2ccc(-c3ccc4c(c3)CN(C(=O)N3CCCCCCC3)CCO4)cc2[nH]1 [Compound 167, 4-(azocan-1-ylcarbonyl)-7-(2-methyl-1H-benzimidazol-6-yl)-2,3,4,5-tetrahydro-1,4-benzoxazepine] | 1 to 3 | 0.7 to 2.6 | – |
| CCOC(=O)C1CCCCN1C(=O)N1CCOc2ccc(-c3ccc4nc(C)[nH]c4c3)cc2C1 (stereo not shown) [Compound 75, ethyl 1-{[7-(2-methyl-1H-benzimidazol-6-yl)-2,3-dihydro-1,4-benzoxazepin-4(5H)-yl]carbonyl}piperidine-2-carboxylate] | 1 to 3 | 0.7 to 2.6 | – |
| Cc1nc2ccc(-c3ccc4c(c3)CN(C(=O)N3CCCC3c3ccccc3)CCO4)cc2[nH]1 (stereo not shown) [Compound 95, 7-(2-methyl-1H-benzimidazol-6-yl)-4-[(2-phenylpyrrolidin-1-yl)carbonyl]-2,3,4,5-tetrahydro-1,4-benzoxazepine] | 0.5 to 1 | 0.05 to 0.25 | – |
| O=C1CCN(C(=O)N2CCOc3ccc(-c4ccc(C(=O)NCC(F)F)cc4)cc3C2)C(c2cccc(F)c2)C1 (stereo not shown) [Compound 64, N-(2,2-difluoroethyl)-4-(4-{[2-(3-fluorophenyl)-4-oxopiperidin-1-yl]carbonyl}-2,3,4,5-tetrahydro-1,4-benzoxazepin-7-yl)benzamide] | 0.5 to 1 | 0.05 to 0.25 | – |
| Cc1nc2ccc(-c3ccc4c(c3)CN(C(=O)N3CCCCC3c3ccc(N(C)C)cc3)CCO4)cc2[nH]1 (stereo not shown) [Compound 131, N,N-dimethyl-4-(1-{[7-(2-methyl-1H-benzimidazol-6-yl)-2,3-dihydro-1,4-benzoxazepin-4(5H)-yl]carbonyl}piperidin-2-yl)aniline] | 1 to 3 | 0.7 to 2.6 | – |
| Cc1nc2ccc(-c3ccc4c(c3)CN(C(=O)N3CCC(C)(O)CC3)CCO4)cc2[nH]1 [Compound 79, 4-methyl-1-{[7-(2-methyl-1H-benzimidazol-6-yl)-2,3-dihydro-1,4-benzoxazepin-4(5H)-yl]carbonyl}piperidin-4-ol] | 0.5 to 1 | 0.05 to 0.25 | – |
| Cc1nc2ccc(-c3ccc4c(c3)CN(C(=O)N3CCCC(c5ccccc5)C3)CCO4)cc2[nH]1 (stereo not shown) [Compound 97, 7-(2-methyl-1H-benzimidazol-6-yl)-4-[(3-phenylpiperidin-1-yl)carbonyl]-2,3,4,5-tetrahydro-1,4-benzoxazepine] | 0.5 to 1 | 0.25 to 0.7 | – |
| Cc1nc2ccc(-c3ccc4c(c3)CN(C(=O)N3CCN(c5ccccc5)CC3)CCO4)cc2[nH]1 [Compound 174, 7-(2-methyl-1H-benzimidazol-6-yl)-4-[(4-phenylpiperazin-1-yl)carbonyl]-2,3,4,5-tetrahydro-1,4-benzoxazepine] | 0.5 to 1 | 0.25 to 0.7 | – |
| Cc1nc2ccc(-c3ccc4c(c3)CN(C(=O)N3CCC(c5noc(C)n5)CC3)CCO4)cc2[nH]1 [Compound 162, 7-(2-methyl-1H-benzimidazol-6-yl)-4-{[4-(5-methyl-1,2,4-oxadiazol-3-yl)piperidin-1-yl]carbonyl}-2,3,4,5-tetrahydro-1,4-benzoxazepine] | 1 to 3 | 0.25 to 0.7 | – |
| Cc1nc2cc(-c3ccc4c(c3)CN(C(=O)N3C[C@H]5CC(C)C[C@H]5C3)CCO4)ccc2[nH]1 (stereo partly drawn) [Compound 90, 7-(2-methyl-1H-benzimidazol-5-yl)-4-{[(3aR,6aS)-5-methylhexahydrocyclopenta[c]pyrrol-2(1H)-yl]carbonyl}-2,3,4,5-tetrahydro-1,4-benzoxazepine] | 0.2 to 0.5 | 0.05 to 0.25 | – |
| CC1CCN(C(=O)N2CCOc3ccc(-c4cnc(N)nc4)cc3C2)CC1 [Compound 3, 5-{4-[(4-methylpiperidin-1-yl)carbonyl]-2,3,4,5-tetrahydro-1,4-benzoxazepin-7-yl}pyrimidin-2-amine] | 1 to 3 | 0.7 to 2.6 | – |
| Cc1nc2ccc(-c3ccc4c(c3)CN(C(=O)N3CCN(c5ccc(C(F)(F)F)cn5)CC3)CCO4)cc2[nH]1 [Compound 150, 7-(2-methyl-1H-benzimidazol-6-yl)-4-({4-[5-(trifluoromethyl)pyridin-2-yl]piperazin-1-yl}carbonyl)-2,3,4,5-tetrahydro-1,4-benzoxazepine] | 0.5 to 1 | – | not active |

Second part, the compound after the results:

| IC50 (PI3Kα) [µM] | IC50 (mTORC1 (mTOR/GbL/Raptor); read-out: IC50) [µM] | IC50 (mTORC1 (mTOR/GbL/Raptor)) | SMILES |
| --- | --- | --- | --- |
| 0.2 to 0.5 | ≤ 0.05 | – | COC(=O)Nc1nc2ccc(-c3ccc4c(c3)CN(C(=O)N3CCC(O)(C(F)(F)F)CC3)CCO4)cc2[nH]1 [Compound 22, methyl [6-(4-{[4-hydroxy-4-(trifluoromethyl)piperidin-1-yl]carbonyl}-2,3,4,5-tetrahydro-1,4-benzoxazepin-7-yl)-1H-benzimidazol-2-yl]carbamate] |
| ≤ 0.075 | 0.05 to 0.25 | – | COC(=O)Nc1nc2ccc(-c3ccc4c(c3)CN(C(=O)N3CCC(=O)CC3c3ccc(F)cc3)CCO4)cc2[nH]1 (stereo not shown) [Compound 14, methyl [6-(4-{[2-(4-fluorophenyl)-4-oxopiperidin-1-yl]carbonyl}-2,3,4,5-tetrahydro-1,4-benzoxazepin-7-yl)-1H-benzimidazol-2-yl]carbamate] |
| 0.2 to 0.5 | 0.05 to 0.25 | – | O=C(N1CCOc2ccc(-c3cnc4nc[nH]c4c3)cc2C1)N1[C@@H]2CC[C@H]1C[C@](O)(C(F)(F)F)C2 [Compound 178, 8-{[7-(1H-imidazo[4,5-b]pyridin-6-yl)-2,3-dihydro-1,4-benzoxazepin-4(5H)-yl]carbonyl}-3-(trifluoromethyl)-8-azabicyclo[3.2.1]octan-3-(endo)-ol] |
| 0.2 to 0.5 | 0.05 to 0.25 | – | CCC1CCCN(C(=O)N2CCOc3ccc(-c4ccc5nc(C)[nH]c5c4)cc3C2)C1 (stereo not shown) [Compound 72, 4-[(3-ethylpiperidin-1-yl)carbonyl]-7-(2-methyl-1H-benzimidazol-6-yl)-2,3,4,5-tetrahydro-1,4-benzoxazepine] |
| ≤ 0.075 | ≤ 0.05 | – | CCNc1nc2ccc(-c3ccc4c(c3)CN(C(=O)N3CCC(=O)CC3c3cccc(F)c3)CCO4)cc2[nH]1 (stereo not shown) [Compound 30, 1-({7-[2-(ethylamino)-1H-benzimidazol-6-yl]-2,3-dihydro-1,4-benzoxazepin-4(5H)-yl}carbonyl)-2-(3-fluorophenyl)piperidin-4-one] |
| ≤ 0.075 | 0.05 to 0.25 | – | COC(=O)Nc1nc2ccc(-c3ccc4c(c3)CN(C(=O)N3CCCCC3c3ccc(F)cc3)CCO4)cc2[nH]1 (stereo not shown) [Compound 12, methyl [6-(4-{[2-(4-fluorophenyl)piperidin-1-yl]carbonyl}-2,3,4,5-tetrahydro-1,4-benzoxazepin-7-yl)-1H-benzimidazol-2-yl]carbamate] |
| 0.2 to 0.5 | ≤ 0.05 | – | O=C1CCN(C(=O)N2CCOc3ccc(-c4ccc5[nH]c(NCC(F)(F)F)nc5c4)cc3C2)C(c2cccc(F)c2)C1 (stereo not shown) [Compound 31, 2-(3-fluorophenyl)-1-{[7-{2-[(2,2,2-trifluoroethyl)amino]-1H-benzimidazol-5-yl}-2,3-dihydro-1,4-benzoxazepin-4(5H)-yl]carbonyl}piperidin-4-one] |
| 0.2 to 0.5 | 0.05 to 0.25 | – | Cc1nc2cc(-c3ccc4c(c3)CN(C(=O)N3CCC(=O)CC3c3cccc(F)c3)CCO4)cnc2[nH]1 (stereo not shown) [Compound 51, 2-(3-fluorophenyl)-1-{[7-(2-methyl-3H-imidazo[4,5-b]pyridin-6-yl)-2,3-dihydro-1,4-benzoxazepin-4(5H)-yl]carbonyl}piperidin-4-one] |
| 0.2 to 0.5 | 0.7 to 2.6 | – | Cc1nc2ccc(-c3ccc4c(c3)CN(C(=O)N3CCN(c5ncccn5)CC3)CCO4)cc2[nH]1 [Compound 166, 7-(2-methyl-1H-benzimidazol-6-yl)-4-[(4-pyrimidin-2-ylpiperazin-1-yl)carbonyl]-2,3,4,5-tetrahydro-1,4-benzoxazepine] |
| 0.075 to 0.2 | ≤ 0.05 | – | Cc1nc2ccc(-c3ccc4c(c3)CN(C(=O)N(C)[C@H](C)c3ccccc3)CCO4)cc2[nH]1 [Compound 109, N-methyl-7-(2-methyl-1H-benzimidazol-6-yl)-N-[(1R)-1-phenylethyl]-2,3-dihydro-1,4-benzoxazepine-4(5H)-carboxamide] |
| 0.075 to 0.2 | ≤ 0.05 | – | N#CC1CCN(C(=O)N2CCOc3ccc(-c4ccc(-c5ncc[nH]5)cc4)cc3C2)CC1 [Compound 61, 1-({7-[4-(1H-imidazol-2-yl)phenyl]-2,3-dihydro-1,4-benzoxazepin-4(5H)-yl}carbonyl)piperidine-4-carbonitrile] |
| ≤ 0.075 | 0.05 to 0.25 | – | COC(=O)Nc1nc2ncc(-c3ccc4c(c3)CN(C(=O)N3CCC(=O)CC3c3ccc(F)cc3)CCO4)cc2[nH]1 (stereo not shown) [Compound 37, methyl [6-(4-{[2-(4-fluorophenyl)-4-oxopiperidin-1-yl]carbonyl}-2,3,4,5-tetrahydro-1,4-benzoxazepin-7-yl)-1H-imidazo[4,5-b]pyridin-2-yl]carbamate] |
| 0.2 to 0.5 | 0.05 to 0.25 | – | Cc1nc2ccc(-c3ccc4c(c3)CN(C(=O)N3CC[C@@H](C#N)C[C@@H]3c3ccc(F)c(F)c3)CCO4)cc2[nH]1 (racemic) [Compound 148, (±)-(2R,4R)-2-(3,4-difluorophenyl)-1-{[7-(2-methyl-1H-benzimidazol-6-yl)-2,3-dihydro-1,4-benzoxazepin-4(5H)-yl]carbonyl}piperidine-4-carbonitrile] |
